Entries after “also recorded” stand apart in the source; their conditions may differ.
Experiments:
fecal bile acids = assay: Fecal bile acid excretion after oral administration; format: in vivo, Sprague-Dawley rats; conditions: for Total fecal bile acid excretion: pooled feces day 4
Protocol: Male Sprague-Dawley rats (Harlan Sprague-Dawley, Inc., Indianapolis, Ind.), weighing 210-290 g, were maintained on a 12-hour light-dark cycle and fed standard laboratory chow ad libitum for 3 days. The animals were then transferred to metabolic cages in which they were housed individually and fed the same diet. UDCA, UDCA 3-sulfate, UDCA 7-sulfate, and UDCA 3,7-disulfate were administered by gavage at a dose of 250 mg/day for 4 consecutive days. Each group comprised 3-6 rats. Body weights of the animals were measured each day. On day 5, the animals were killed by exsanguination under ether anesthesia. Plasma was collected and frozen at -20° C. The liver was removed, rinsed in normal saline, and flash-frozen in liquid nitrogen. Urine and feces were collected every 24 hours and frozen at -20° C. All animals received humane care in compliance with the "Guide for the Care and Use of Laboratory Animals" prepared by the National Academy of Sciences (National Institutes of Health publication no. 86-23, revised in 1985).
Intestinal contents were weighed and dissected into small pieces. In each group, feces (100 mg) from all animals were pooled on day 4 of the study and then ground into a fine paste. All samples were sonicated and sequentially refluxed in 80% methanol for 2 hours and chloroform/methanol (1:1) for 1 hour. Samples were taken to dryness, and the dried extracts were resuspended in 80% methanol (20 mL). Fractions of the methanolic extract (1/40 of intestinal contents and 1/20 of feces samples) were removed and the internal standard nordeoxycholic acid (10 μg) was added. This extract was diluted with 0.01 mol/L acetic acid (20 mL) and passed first through a column of Lipidex 1000 (bed size, 4×1 cm; Packard Instrument Co., Groningen, The Netherlands) and then through a Bond-Elut C18, cartridge (Analytichem, Harbor City, Calif.). Bile acids were recovered by elution of the Lipidex 1000 column and the Bond-Elut cartridge with methanol (20 mL and 5 mL, respectively), and the combined extracts were taken to dryness. Unconjugated bile acids were isolated and separated from neutral sterol and conjugated bile acids by lipophilic anion exchange chromatography on diethylaminohydroxypropyl Sephadex LH-20 (Lipidex-DEAP; Package Instrument Co.). Recovery of unconjugated bile acids was achieved by elution with 0.1 mol/L acetic acid in 72% ethanol (7 mL) followed by evaporation of the solvents. Total conjugated bile acids were recovered with 9 mL of 0.3 mol/L acetic acid in 72% ethanol, pH 9.6. Salts were removed by passage through a Bond-Elut C18 cartridge after addition of nordeoxycholic acid (10 μg), and conjugated bile acids were recovered by elution with 5 mL of methanol. Solvolysis was performed in a mixture of methanol (1 mL), distilled tetrahydrofuran (9 mL), and 1 mol/L trifluoracetic acid in dioxane (0.1 mL) and heated to 45° C for 2 hours. After solvolysis, unconjugated bile acids were isolated by chromatography on Lipidex-DEAP. Methyl ester derivatives were prepared by dissolving the sample in methanol (0.3 mL) and reacting with 2.7 mL of freshly distilled ethereal diazomethane. After evaporation of the reagents, the methyl ester derivatives were converted to trimethylsilyl ethers by the addition of […] of Tri-Sil reagent (Pierce Chemicals, Rockford, Ill.). A column of Lipidex 5000 (Packard Instrument Co.) was used to remove derivatizing reagents and to purify the sample.
GC-MS analysis was performed using a Finnigan 4635 mass spectrometer (Finnigan Inc., San Jose, Calif.) that housed an identical gas chromatography column operated under the same conditions. Electron ionization (70 eV) mass spectra were recorded over the mass range of 50-800 daltons by repetitive scanning of the eluting components. […]

[1] = tested on: bile acids secreted in bile; assay: Biliary bile acid composition during i.v. infusion (GC-MS); format: in vivo, Sprague-Dawley rats; conditions: for Further hydroxylation (in words): GC-MS of bile
Protocol: Adult male Sprague-Dawley rats (body weight 200-230 g) were anesthetized by an intraperitoneal injection of pentobarbital (Nembutal, 7.5 mg/100 g body weight), and maintained under sedation by additional doses. The right jugular vein and the common bile duct were cannulated using PE-50 polyethylene tubing (Clay-Adams, Parsippany, N.J.). Body temperature was maintained throughout the experiment at 37° C. using a rectal probe and a thermostatically controlled heating pad (Harvard Apparatus Co., Inc., Millis, Mass.). Saline was infused at a rate of 1.0 ml/h using a Harvard pump (Harvard Apparatus Co., Inc.) into the jugular vein for a control period of 2h. After collecting two 10 minute bile samples for base-line analysis, the bile acids were individually infused intravenously (i.v.) for 30 minutes in stepwise increasing doses (0.5, 1.0, and 2.0 μmol/min/100 g body weight). Bile acid solutions were prepared in 3% human albumin in 0.45% saline. Six animals were used for each experiment and bile was collected every 10 minutes into preweighed tubes. At the end of the experiment, blood was obtained by cardiac puncture, and urine was obtained by aspiration of the bladder. All biological specimens were stored at -20° C. This animal study protocol (#1 B 10044) was approved by the Bioethics committee of the Children's Hospital Medical Center (Cincinnati, Ohio).
GC-MS was carried out on either a VG Autospec Q magnetic sector instrument or a Finnigan 4635 quadruple GC-MS-DS instrument housing identical GC columns and operated under the same chromatographic conditions. Electron ionization (70 eV) mass spectra were recorded over the mass range 50 to 1000 Da/e by repetitive scanning of the eluting components.
For the determination of hepatic biotransformation of the infused bile acid, bile collections from the six animal were pooled and biliary bile acids were determined by GC-MS after extraction, solvolysis, hydrolysis, and derivatization. Quantification of bile acids was achieved using GC, by comparing the peak height response of the individual bile acid with the peak height response obtained from the internal standard, nordeoxycholic acid added to the initial sample of bile. Identification of a bile acid was made on the basis of the retention index relative to a homologous series of n-alkanes, referred to as the methylene unit value (MU) and the fragmentation pattern of the mass spectrum was compared with authentic standards. A list of over 100 mass spectra of authentic bile acid standards and retention indices was recently compiled as a reference source (Lawson, A. M., et al, Mass spectrometry of bile acids, The Bile Acids, Vol. 4, Methods and Applications, pp. 167-267 (1988)).

SMILES | Form of UDCA excreted in feces (fecal bile acids) | Total fecal bile acid excretion (fecal bile acids) | Fecal lithocholate/deoxycholate ratio (in words) (fecal bile acids; vs control) | Relative % composition in bile: CA ([1]; 20-30 mins) | Relative % composition in bile: CDCA ([1]; 20-30 mins) | Relative % composition in bile: DCA ([1]; 20-30 mins) | Relative % composition in bile: MCA ([1]; 20-30 mins) | Relative % composition in bile: UDCA ([1]; 20-30 mins) | Relative % composition in bile: α-MCA ([1]; 20-30 mins) | Relative % composition in bile: β-MCA ([1]; 20-30 mins) | Relative % composition in bile: CA ([1]; 50-60 mins) | Relative % composition in bile: CDCA ([1]; 50-60 mins) | Relative % composition in bile: DCA ([1]; 50-60 mins) | Relative % composition in bile: MCA ([1]; 50-60 mins) | Relative % composition in bile: UDCA ([1]; 50-60 mins) | Relative % composition in bile: α-MCA ([1]; 50-60 mins) | Relative % composition in bile: β-MCA ([1]; 50-60 mins) | Relative % composition in bile: CA ([1]; 80-90 mins) | Relative % composition in bile: CDCA ([1]; 80-90 mins) | Relative % composition in bile: DCA ([1]; 80-90 mins) | also measured
C[C@H](CCC(=O)O)[C@H]1CC[C@H]2[C@@H]3[C@@H](OS(=O)(=O)O)C[C@@H]4C[C@H](O)CC[C@]4(C)[C@H]3CC[C@]12C [UDCA-7S, ursodeoxycholic acid 7-sulfate] | excreted in feces virtually unchanged | 12.65 mg/g feces | no change in the lithocholate/deoxycholate ratio | 20.2% | 1.7% | 2.3% | 1.3% | 61.3% | 2.5% | 10.7% | 7.7% | 0.6% | 0.7% | 0.6% | 83.6% | 0.9% | 5.9% | 9.9% | 0.7% | 1.2% | Fecal concentration of total UDCA (in words) (fecal bile acids): markedly greater than that found in the feces of animals administered UDCA or UDCA 3-sulfate; Relative % composition in bile: MCA ([1]; 80-90 mins): 0.8%; Relative % composition in bile: UDCA ([1]; 80-90 mins): 78.8%; Relative % composition in bile: α-MCA ([1]; 80-90 mins): 1.3%; Relative % composition in bile: β-MCA ([1]; 80-90 mins): 7.4%; Further hydroxylation (in words) [1]: neither UDCA-7S nor UDCA-disulfatewere hydroxylated
C[C@H](CCC(=O)O)[C@H]1CC[C@H]2[C@@H]3[C@@H](O)C[C@@H]4C[C@H](O)CC[C@]4(C)[C@H]3CC[C@]12C [UDCA, 3 alpha, 7 beta-dihydroxy-5 beta-cholan-24oic acid, reference compound] | almost exclusively found in the unconjugated form | 14.85 mg/g feces | markedly increased | 49.0% | 3.0% | 1.0% | 1.0% | 51.9% | 4.3% | 17.2% | 21.4% | 2.5% | 0.5% | 0.5% | 65.9% | 3.9% | 12.6% | 9.8% | 1.5% | 0.7% | Fecal deoxycholic acid (in words) (fecal bile acids): increase in deoxycholic acid in the feces; Increase of fecal lithocholic acid/deoxycholic acid ratio vs normal rat feces (fecal bile acids): more than 20 fold; Fecal lithocholic acid excretion (in words) (fecal bile acids; vs control): increased markedly from control values; also recorded: large increase in the fecal lithocholic acid concentration; Relative % composition in bile: others ([1]; 20-30 mins): 14.6%; Relative % composition in bile: others ([1]; 50-60 mins): 13.7%; Relative % composition in bile: UDCA ([1]; 80-90 mins): 79.5%; Relative % composition in bile: others ([1]; 80-90 mins): 11.9%; Relative % composition in bile: α-MCA ([1]; 80-90 mins): 6.4%; Relative % composition in bile: β-MCA ([1]; 80-90 mins): 9.9%; Further hydroxylation (in words) [1]: metabolized by further hydroxylation, most probably in the side-chain
